According to paper PMC6934184, “Selective DNA-PKcs inhibition extends the therapeutic index of localized radiotherapy and chemotherapy” (The Journal of Clinical Investigation, 2019):

Target: T1, KIT A829P (Homo sapiens, UniProt P10721, A829P)
T1 construct: purchased Thermo Fisher Scientific (Life Technologies) SelectScreen
Assay: SelectScreen LanthaScreen
Type: binding
Details: read-out: % displacement
Procedure, shortened: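 SelectScreen broad panel; activity (Z'LYTE, Adapta) plus binding formats. ATP: Km app for CSF1R Z'LYTE; 10 for CAMK1 Adapta. Readout = % per kinase.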

T1 sequence (P10721 26-976 A829P): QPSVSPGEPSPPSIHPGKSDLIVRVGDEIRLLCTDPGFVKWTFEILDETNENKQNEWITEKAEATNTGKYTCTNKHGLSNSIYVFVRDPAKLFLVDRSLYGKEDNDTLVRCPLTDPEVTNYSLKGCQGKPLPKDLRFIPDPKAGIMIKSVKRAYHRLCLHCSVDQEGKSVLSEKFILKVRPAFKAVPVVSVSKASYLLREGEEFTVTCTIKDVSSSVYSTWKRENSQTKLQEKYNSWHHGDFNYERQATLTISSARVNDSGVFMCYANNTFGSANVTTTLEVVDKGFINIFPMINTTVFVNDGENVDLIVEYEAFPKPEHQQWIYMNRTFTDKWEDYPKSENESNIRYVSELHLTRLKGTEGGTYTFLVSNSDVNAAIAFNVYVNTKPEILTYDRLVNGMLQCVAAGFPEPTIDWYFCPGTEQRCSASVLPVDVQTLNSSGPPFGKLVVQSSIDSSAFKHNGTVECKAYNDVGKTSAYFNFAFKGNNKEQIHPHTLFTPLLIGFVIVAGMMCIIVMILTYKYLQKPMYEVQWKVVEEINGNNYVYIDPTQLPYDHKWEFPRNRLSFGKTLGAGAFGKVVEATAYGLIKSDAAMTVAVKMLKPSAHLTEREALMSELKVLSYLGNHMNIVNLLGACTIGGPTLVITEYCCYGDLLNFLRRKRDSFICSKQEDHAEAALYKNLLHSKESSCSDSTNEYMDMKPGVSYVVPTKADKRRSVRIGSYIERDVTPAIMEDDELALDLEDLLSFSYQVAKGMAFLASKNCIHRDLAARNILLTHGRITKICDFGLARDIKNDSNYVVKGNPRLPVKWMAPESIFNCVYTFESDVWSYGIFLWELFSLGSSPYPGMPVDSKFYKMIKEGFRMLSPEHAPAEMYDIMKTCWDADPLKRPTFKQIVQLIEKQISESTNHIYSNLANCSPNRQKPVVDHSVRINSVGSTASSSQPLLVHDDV

`CN(C(=O)CN1CCOCC1)c1ccc2sc3c(-c4cccc5c(=O)cc(N6CC7CCC(C6)O7)oc45)cccc3c2c1` [NU5455] was tested, and the inhibition at 1 µM was 0.7%.
